Assays:
[1] = tested on: H358 (KRAS-G12C); experiment: Anti-proliferation assay on H358; format: cell-based; conditions: 72 h treatment, average with SD (n = 3, duplicate)
Method: (§1) Ba/F3-parental, OCI-AML3, U397 cells were purchased from DSMZ. MDA-MB-231, HCT-116, AsPC-1, H358, HT-29, SW480, and DU-145 cells were obtained from KCLB. MDA-MB-468 cells were obtained from ATCC. All cells were maintained in RPMI with 10% FBS and antibiotics. Cells were grown in a humidified 5% CO2 incubator at 37°C. Ba/F3-parental cells were grown in the presence of 10 ng/ml IL-3. NRAS-G12D or NRAS-G12V transformed Ba/F3 cell lines (Ba/F3-NRAS-G12D, and Ba/F3-NRAS-G12V, respectively) were cultured without IL-3, which were established by the procedure described as previously ([30]).
(§2) Approximately 3.0 × 10^3 cells/well were seeded in a 96-well cell culture plate. After stabilization, 1/3 serially diluted compound in DMSO was treated to the cell. […] All GI50 values were obtained in duplicate with three independent assays and averages with standard deviation are presented.

[2] = tested on: SW480 (KRAS-G12V); experiment: Anti-proliferation assay on SW480; format: cell-based; conditions: 72 h treatment, average with SD (n = 3, duplicate)
Method: as §1, §2

[3] = tested on: Ba/F3-NRAS-G12V cells; experiment: Anti-proliferation assay (CellTiter Glo) on Ba/F3-NRAS-G12V; format: cell-based; conditions: 72 h treatment, average with SD (n = 3, duplicate)
Method: as §1, §2

[4] = tested on: AsPC-1 (KRAS-G12D); experiment: Anti-proliferation assay on AsPC-1; format: cell-based; conditions: 72 h treatment, average with SD (n = 3, duplicate)
Method: as §1, §2

[5] = tested on: OCI-AML3 (NRAS-Q61L); experiment: Anti-proliferation assay on OCI-AML3; format: cell-based, human; conditions: 72 h treatment, average with SD (n = 3, duplicate)
Method: as §1, §2

[6] = tested on: HT-29 (KRAS-Q61L); experiment: Anti-proliferation assay on HT-29; format: cell-based; conditions: 72 h treatment, average with SD (n = 3, duplicate)
Method: as §1, §2

[7] = tested on: DU-145 (KRAS-G12V); experiment: Anti-proliferation assay on DU-145; format: cell-based; conditions: 72 h treatment, average with SD (n = 3, duplicate)
Method: as §1, §2

[8] = tested on: Ba/F3-parental cells; experiment: Anti-proliferation assay (CellTiter Glo) on Ba/F3-parental; format: cell-based; conditions: 72 h treatment, with 10 ng/ml IL-3, average with SD (n = 3, duplicate)
Method: as §1, §2

[9] = tested on: Ba/F3-NRAS-G12D cells; experiment: Anti-proliferation assay (CellTiter Glo) on Ba/F3-NRAS-G12D; format: cell-based; conditions: 72 h treatment, average with SD (n = 3, duplicate)
Method: as §1, §2

[10] = tested on: MDA-MB-468 (KRAS, NRAS-wt); experiment: Anti-proliferation assay on MDA-MB-468; format: cell-based; conditions: 72 h treatment, average with SD (n = 3, duplicate)
Method: as §1, §2

[11] = tested on: U937 (KRAS, NRAS-wt); experiment: Anti-proliferation assay on U937; format: cell-based; conditions: 72 h treatment, average with SD (n = 3, duplicate)
Method: as §1, §2

[12] = tested on: MDA-MB-231 (KRAS-G13D); experiment: Anti-proliferation assay on MDA-MB-231; format: cell-based; conditions: 72 h treatment, average with SD (n = 3, duplicate)
Method: as §1, §2

[13] = tested on: HCT-116 (KRAS-G13D); experiment: Anti-proliferation assay on HCT-116; format: cell-based; conditions: 72 h treatment, average with SD (n = 3, duplicate)
Method: as §1, §2

GI50 ([1]; Homo sapiens, NCI-H358) [nM] | GI50 ([2]; Homo sapiens, SW480) [nM] | GI50 ([3]; Mus musculus, BaF3) [nM] | GI50 ([4]; Homo sapiens, ASPC1) [nM] | GI50 ([5]; Homo sapiens, OCI-AML-3) [nM] | GI50 ([6]; Homo sapiens, HT-29) [nM] | GI50 ([7]; Homo sapiens, DU-145) [nM] | GI50 ([9]; Mus musculus, BaF3) [nM] | GI50 ([10]; Homo sapiens, MDA-MB-468) [nM] | GI50 ([11]; Homo sapiens, U-937) [nM] | GI50 ([12]; Homo sapiens, MDA-MB-231) [nM] | GI50 ([13]; Homo sapiens, HCT-116) [nM] | Structure (SMILES) | GI50 ([8]; Mus musculus, BaF3) [nM] | also measured
236 ± 29 | 163 | 213 ± 53 | 135 ± 18 | 44 ± 14 | 126 ± 2 | 32 ± 14 | 230 ± 129 | 26100 ± 7900 | 1040 ± 225 | 83 ± 22 | 25 ± 10 | CCN1CCN(c2ccc(Nc3ncc4c(n3)N(C)C(=O)N(c3cc(NC(=O)c5cccc(C(F)(F)F)c5)ccc3C)C4)cc2)CC1 [Compound 4, N-(3-(7-((4-(4-Ethylpiperazin-1-yl)phenyl)amino)-1-methyl-2-oxo-1,4-dihydropyrimido[4,5-d]pyrimidin-3(2H)-yl)-4-methylphenyl)-3-(trifluoromethyl)benzamide] | 857 ± 108 | –
8980 ± 246 | 5790 ± 657 | 944 ± 112 | 6650 ± 102 | 687 ± 154 | 2140 ± 109 | 3990 ± 566 | 1255 ± 6 | > 50000 | 6060 ± 2180 | 2790 ± 658 | 5810 ± 965 | CCN1CCN(c2ccc(Nc3ncc4c(n3)N(C)C(=O)N(c3cc(NC(=O)c5cccc(C(F)(F)F)c5)ccc3C)C4)c(C(F)(F)F)c2)CC1 [Compound 8, N-(3-(7-((4-(4-Ethylpiperazin-1-yl)-2-(trifluoromethyl)phenyl)amino)-1-methyl-2-oxo-1,4-dihydropyrimido[4,5-d]pyrimidin-3(2H)-yl)-4-methylphenyl)-3-(trifluoromethyl)benzamide] | 3920 ± 722 | –
106 ± 12 | 532 ± 150 | 216 ± 5 | 275 ± 47 | 46 ± 16 | 131 ± 4 | 34 ± 25 | 122 ± 1 | > 50000 | 934 ± 57 | 71 ± 18 | 66 ± 55 | COCCn1cc(Nc2ncc3c(n2)N(C)C(=O)N(c2cc(NC(=O)c4cccc(C(F)(F)F)c4)ccc2C)C3)cn1 [Compound 12, N-(3-(7-((1-(2-Methoxyethyl)-1H-pyrazol-4-yl)amino)-1-methyl-2-oxo-1,4-dihydropyrimido[4,5-d]pyrimidin-3(2H)-yl)-4-methylphenyl)-3-(trifluoromethyl)benzamide] | 1160 ± 424 | –
5140 ± 368 | 6440 ± 264 | 351 ± 34 | 4160 ± 2170 | 538 ± 162 | 3120 ± 460 | 1880 ± 125 | 457 ± 141 | > 50000 | 4720 ± 488 | 1110 ± 127 | 2540 ± 1810 | Cc1ccc(NC(=O)c2cccc(C(F)(F)F)c2)cc1N1Cc2cnc(NCCCN3CCOCC3)nc2N(C)C1=O [Compound 5, N-(4-Methyl-3-(1-methyl-7-((3-morpholinopropyl)amino)-2-oxo-1,4-dihydropyrimido[4,5-d]pyrimidin-3(2H)-yl)phenyl)-3-(trifluoromethyl)benzamide] | 5730 ± 148 | –
2060 ± 1130 | 2050 ± 51 | 428 ± 161 | 3170 ± 244 | 374 ± 24 | 3250 ± 176 | 1170 ± 124 | 569 ± 28 | > 50000 | 2870 ± 142 | 646 ± 68 | 1530 ± 390 | Cc1ccc(Nc2ncc3c(n2)N(C)C(=O)N(c2cc(NC(=O)c4cccc(C(F)(F)F)c4)ccc2C)C3)c(C)n1 [Compound 6, N-(3-(7-((2,6-Dimethylpyridin-3-yl)amino)-1-methyl-2-oxo-1,4-dihydropyrimido[4,5-d]pyrimidin-3(2H)-yl)-4-methylphenyl)-3-(trifluoromethyl)benzamide] | 1470 ± 317 | –
– | – | – | – | – | – | – | – | – | – | – | – | Cc1ccc(Nc2ncc3c(n2)N(C)C(=O)N(c2cc(NC(=O)c4cccc(C(F)(F)F)c4)ccc2C)C3)cn1 [GNF-7, reference compound] | – | GI50 [1]: 922 ± 93 nM; GI50 [2]: 760 ± 63 nM; GI50 [3]: 396 ± 36 nM; GI50 [4]: 448 ± 27 nM; GI50 [5]: 229 ± 10 nM; GI50 [6]: 938 ± 34 nM; GI50 [7]: 288 ± 57 nM; GI50 [8]: 923 ± 59 nM; GI50 [9]: 250 ± 26 nM; GI50 [10]: > 50000 nM; GI50 [11]: 4780 ± 926 nM; GI50 [12]: 296 ± 39 nM; GI50 [13]: 169 ± 61 nM
871 ± 141 | 1329 ± 5 | 429 ± 80 | 1680 ± 589 | 606 ± 68 | 733 ± 1 | 388 ± 45 | 588 ± 72 | > 50000 | 17400 ± 4220 | 620 ± 153 | 480 ± 275 | COc1cc(N2CCOCC2)ccc1Nc1ncc2c(n1)N(C)C(=O)N(c1cc(NC(=O)c3cccc(C(F)(F)F)c3)ccc1C)C2 [Compound 7, N-(3-(7-((2-Methoxy-4-morpholinophenyl)amino)-1-methyl-2-oxo-1,4-dihydropyrimido[4,5-d]pyrimidin-3(2H)-yl)-4-methylphenyl)-3-(trifluoromethyl)benzamide] | 3780 ± 1890 | –
201 ± 23 | 293 ± 50 | 181 ± 42 | 257 ± 129 | 101 ± 22 | 143 ± 10 | 40 ± 20 | 116 ± 37 | 20200 ± 8770 | 1690 ± 624 | 90 | 15 ± 9 | Cc1ccc(NC(=O)c2cccc(C(F)(F)F)c2)cc1N1Cc2cnc(Nc3ccc(N4CCC(O)CC4)cc3)nc2N(C)C1=O [Compound 2, N-(3-(7-((4-(4-Hydroxypiperidin-1-yl)phenyl)amino)-1-methyl-2-oxo-1,4-dihydropyrimido[4,5-d]pyrimidin-3(2H)-yl)-4-methylphenyl)-3-(trifluoromethyl)benzamide] | 827 ± 142 | –
240 ± 42 | 286 ± 39 | 259 ± 126 | 318 ± 10 | 103 ± 1 | 355 ± 54 | 89 ± 47 | 185 ± 15 | > 50000 | 7000 ± 1120 | 108 ± 26 | 45 ± 16 | Cc1ccc(NC(=O)c2cccc(C(F)(F)F)c2)cc1N1Cc2cnc(Nc3ccn(C)n3)nc2N(C)C1=O [Compound 11, N-(4-Methyl-3-(1-methyl-7-((1-methyl-1H-pyrazol-3-yl)amino)-2-oxo-1,4-dihydropyrimido[4,5-d]pyrimidin-3(2H)-yl)phenyl)-3-(trifluoromethyl)benzamid] | 1160 ± 330 | –
130 ± 9 | 275 ± 29 | 280 ± 79 | 105 ± 34 | 59 ± 7 | 366 ± 152 | 51 ± 46 | 193 ± 7 | > 50000 | 2700 ± 668 | 50 ± 12 | 68 ± 28 | Cc1ccc(NC(=O)c2cccc(C(F)(F)F)c2)cc1N1Cc2cnc(Nc3cnn(C)c3)nc2N(C)C1=O [Compound 10, N-(4-Methyl-3-(1-methyl-7-((1-methyl-1H-pyrazol-4-yl)amino)-2-oxo-1,4-dihydropyrimido[4,5-d]pyrimidin-3(2H)-yl)phenyl)-3-(trifluoromethyl)benzamide] | 630 ± 104 | –
1380 ± 96 | 4510 ± 873 | – | 2020 ± 56 | 611 ± 65 | 1310 ± 54 | 1040 ± 400 | 586 ± 91 | > 50000 | > 50000 | 1120 ± 290 | 1240 ± 554 | Cc1ccc(NC(=O)c2cccc(C(F)(F)F)c2)cc1N1Cc2cnc(Nc3ccc(N4CCCCC4)cc3)nc2N(C)C1=O [Compound 1, N-(4-Methyl-3-(1-methyl-2-oxo-7-((4-(piperidin-1-yl)phenyl)amino)-1,4-dihydropyrimido[4,5-d]pyrimidin-3(2H)-yl)phenyl)-3-(trifluoromethyl)benzamide] | > 50000 | –

Source: publication PMC8695447, “Novel Small Molecules Capable of Blocking mtRAS-Signaling Pathway” (Frontiers in Oncology, 2021)
